Measured values reported in US12458629B2, “Method for treating nonsense mutation mediated duchenne muscular dystrophy in pediatric patients” (PTC THERAPEUTICS, INC., priority 2019, dated 2025).
Where “and” joins values, the source holds several entries; their conditions need not be identical. Equal entries are not always repeated. Where two headings read alike, the source gives them in different places.

Legend:
[1] = test system: pediatric patients having nmDMD; experiment: North Star Ambulatory Assessment (NSAA), 16-, 8- and 3-item, NCT02819557; type: in vivo, human
From the text: Certain assessments on the NSAA 16-point scale were revised to reflect developmental stages for a pediatric patient population, e.g., “Lifts Head” was removed from the total, Items 3 and 8 on the NSAA scales were further revised to detect changes in the pediatric younger age group.^18,22 The same analysis was used for all subjects (n=14).
However, all patients were included in the baseline and week 52 assessments.

[2] = Ataluren plasma pharmacokinetics, NCT02819557 phase 2 open-label trial (LC-MS/MS); type: in vivo, human; settings: for Cmax (0-6 hr) / concentration at 6 h / AUC(0-t) / Tmax: oral 10, 10, 20 mg/kg TID; for concentration at 6 h / AUC(0-t) / Tmax: male, human, plasma; for concentration at 6 h: oral, read-out: Ctrough-6 hr; for AUC(0-t) / Tmax: po, 20 mg/kg; for Tmax: read-out: tmax (0-6 hr)
Method: A total dose of 40 mg/kg/day study drug was administered as three divided doses per day. The first dose administered was: 10 mg/kg in the morning, the second dose administered was 10 mg/kg at midday, and the third dose administered was 20 mg/kg in the evening.
Evaluations included blood sampling for gene sequencing, blood sampling for ataluren PK, vital signs, height, weight, physical exam, hematology urinalysis, 12-lead ECG, palatability questionnaire, adverse events (AEs), concomitant medications and non-DMD-related Aes. For single-dose and steady-state plasma concentrations, blood samples were collected pre-dose and at 1, 2, 4, 6, 8, and 10 hours post-dose on Days 1 (Visit 2) and 28 (Visit 3). Ataluren plasma concentrations were determined using a validated liquid chromatography with tandem mass spectrometry (LC-MS/MS) method, with a lower limit of quantification (LOQ) of 0.500 μg/mL. Efficacy evaluations included TFTs and the NSAA, adapted as described below.
Observed values of plasma concentrations for ataluren were summarized at each visit and time point by dose level. Descriptive statistics (n, mean, standard deviation [SD], coefficient of variation [CV %], median, minimum, and maximum) and geometric means and their CV % were calculated. PK parameters (AUC0-6, AUC0-10, Cmax (0-6 hr) Ctrough (0-6 hr), t max (0-6 hr), accumulation ratio (AR) (AUC), AR (Cmax)) were derived using actual sampling and dosing times. Concentrations below the LOQ were set to zero for the calculation of non-compartmental analysis (NCA) parameters.

[3] = test system: boys with nmDMD; settings: boys about seven to about 16 years of age with nmDMD, Phase 3 NCT01826487; cited from earlier work
[4] = test system: pediatric patients having nmDMD; experiment: Timed function tests (TFTs), NCT02819557; type: in vivo, human; settings: for decrease in mean time taken to descend 4 stairs (SD): 40 mg/kg/day
Method: For timed function tests (TFTs), results summarizing the baseline values (Study Day 1), post-baseline values, and the change from baseline values were analyzed separately for each of the 4 tests, including time taken to i). walk/run 10 meters, ii). Climb 4 stairs, iii). Descend 4 stairs, and iv). Stand from a supine position. The 10 m walk/run test was assessed once. If the time taken to perform a TFT exceeded 30 seconds or if a subject could not perform a TFT due to disease progression, a value of 30 seconds was set for the summary analysis. The time values in seconds were summarized using descriptive statistics: n, mean, SD, median, range, and 95% confidence intervals. Observed values, and changes from baseline in TFTs were summarized accordingly for the evaluable population.

[5] = Effective plasma concentration range for maximum benefit by 6 minute walking distance (6 MWD); set-up: species or system human; settings: in vivo
Method: As used herein, the term “therapeutically effective amount” refers to that amount of ataluren administered to a patient based on patient weight that is sufficient to attain an average plasma concentration in a range of at least about 1 μg/mL to about 20 μg/mL during a 24 hour time period.

[6] = Day 1 and Day 28, most subjects
[7] = Week 0 - Day 1, arithmetic mean, n=14
[8] = Week 4 - Day 28, arithmetic mean, n=14
[9] = Week 4 - Day 28 vs Day 1, arithmetic mean, n=14

time of peak concentration post-morning dose (first peak) [2, 6]: approximately 2 hours | time of peak concentration post-morning dose (second peak, 2 hours post midday dose) [2, 6]: ~8 h | drug accumulation across doses ([2]; Day 28 vs Day 1): no apparent accumulation | Cmax (0-6 hr) [2, 7]: 15950 ng/mL | Cmax (0-6 hr) [2, 8]: 12540 ng/mL | AR AUC0-6 (accumulation ratio) [2, 9]: 0.99 | AR Cmax (accumulation ratio) [2, 9]: 1.02 | concentration at 6 h [2, 7]: 9120 ng/mL | concentration at 6 h [2, 8]: 5430 ng/mL | AUC(0-t) ([2]; Week 0 - Day 1, arithmetic mean, n=14, boys ≥2 to <5 years with nmDMD, read-out: AUC0-6): 53000 ng·h/mL | AUC(0-t) ([2]; Week 0 - Day 1, arithmetic mean, n=14, read-out: AUC0-10): 102000 ng·h/mL | Tmax [2, 7]: 3.84 h | AUC(0-t) ([2]; Week 4 - Day 28, arithmetic mean, n=14, read-out: AUC0-6): 43600 ng·h/mL | AUC(0-t) ([2]; Week 4 - Day 28, arithmetic mean, n=14, read-out: AUC0-10): 82100 ng·h/mL | Tmax [2, 8]: 2.72 h | time post morning dose at which the effective plasma concentration range is typically found [5]: ≤ 2 h
Compound: O=C(O)c1cccc(-c2noc(-c3ccccc3F)n2)c1 [ataluren, 3-[5-(2-fluoro-phenyl)-[1,2,4]oxadiazol-3-yl]-benzoic acid]
3-item NSAA score, mean (SD) ([1]; Week 28, N=13): 5.8 (±0.38) | 8-item NSAA score, mean (SD) ([1]; Week 28, N=13): 12.1 (+3.12) | 16-item NSAA total score, mean (SD) ([1]; Week 28, N=13): 19.8 (±6.17) and 19.8 (6.17) | 16-item NSAA total score, percent improvement over baseline ([1]; Week 28, N=13): 24.88% and 24.88 (27.203) % | 3-item NSAA score, percent improvement over baseline ([1]; Week 28 vs baseline 5.4): 10.26% | 8-item NSAA score, percent improvement over baseline ([1]; Week 28 vs baseline 10.5): 15.14% | 16-item NSAA total score, improvement over baseline ([1]; Week 28 vs baseline 16.2, N=13): 3.5 (±3.43) points | 3-item NSAA score, mean (SD) ([1]; Week 52, N=14): 5.6 (+0.63) | 8-item NSAA score, mean (SD) ([1]; Week 52, N=14): 12.8 (+3.12) | 16-item NSAA total score, mean (SD) ([1]; Week 52, N=14): 21.5 (±6.48) and 21.5 (6.48) | 16-item NSAA total score, percent improvement over baseline ([1]; Week 52, N=14): 36.63% and 36.63 (29.956) % | 3-item NSAA score, percent improvement over baseline ([1]; Week 52 vs baseline 5.4): 6.31% | 8-item NSAA score, percent improvement over baseline ([1]; Week 52 vs baseline 10.5): 23.31% | 16-item NSAA total score, improvement over baseline ([1]; Week 52 vs baseline 16.0, N=14): 5.5 (±4.43) points | plasma levels and safety in the younger population relative to older children ([2]; ≥2 to <5 yrs vs ≥5 yrs nmDMD populations): similar | tolerability [3]: generally well tolerated | Timed Function Test assessments, change from baseline ([4]; all four TFTs over the 52-week study period): overall improvements from baseline | mean reduction from baseline, 10 m walk/run time ([4]; week 28, 13 patients): 0.8 (±1.54) seconds | mean percent improvement (SD), time to climb 4 stairs ([4]; week 28 vs baseline): 9.10 (±29.63) percent and 9.10 (29.630) percent | mean percent improvement (SD), time to descend 4 stairs ([4]; week 28 vs baseline): 7.17 (±26.43) percent and 7.17 (26.433) percent | mean percent improvement, 10 m walk/run ([4]; week 28 vs baseline): 8.35% and 8.35 (22.778) % | reduction in mean time to climb 4 stairs ([4]; week 28 vs baseline, N=13): 1.8 (±4.85) seconds | decrease in mean time taken to descend 4 stairs (SD) ([4]; week 28 vs mean baseline of 7.1 seconds, 12 patients): 0.6 (±1.93) seconds | mean reduction from baseline, 10 m walk/run time ([4]; week 52, 14 patients): 1.1 (±1.35) seconds | mean percent improvement (SD), time to climb 4 stairs ([4]; week 52 vs baseline): 23.36 (±26.25) percent and 23.36 (26.249) percent | mean percent improvement (SD), time to descend 4 stairs ([4]; week 52 vs baseline): 24.22 (±28.32) percent and 24.22 (28.322) percent | mean percent improvement, 10 m walk/run ([4]; week 52 vs baseline): 14.54% and 14.54 (14.862) % | reduction in mean time to climb 4 stairs ([4]; week 52 vs baseline, N=14): 2.6 (±5.0) seconds | decrease in mean time taken to descend 4 stairs (SD) ([4]; week 52 vs mean baseline of 7.5 seconds, 13 patients): 2.2 (±2.58) seconds | mean improvement from baseline in stand from supine position assessment, week 28 compared with week 52 ([4]; weeks 28 (N=13) and 52 (N=14)): similar
